Assay results taken from patent US10420741B2, “Megalin antagonist” (EA Pharma Co., Ltd., priority 2014, dated 2019).
“Also recorded” adds a separate entry of the source.

Columns and labels:
megalin [1] = biological target: T1, megalin (Rattus norvegicus, UniProt P98158)
Excerpt: Next, detailed description will be given of the present invention through the illustration of examples, and the like; however, the present invention is not limited thereto. In the following Examples and the like, purified megalin from rat kidneys according to the method described in NPL 5 was used as the megalin, cilastatin sodium (produced by Sigma-Aldrich Co. LLC.) was used as the cilastatin, colistin sulfate (produced by Sigma-Aldrich Co. LLC.) was used as the colistin, gentamicin produced by Sigma-Aldrich Co. LLC. was used as the gentamicin, vancomycin produced by Sigma-Aldrich Co. LLC. was used as the vancomycin, tenofovir produced by Sigma-Aldrich Co. LLC. was used as the tenofovir, and cisplatin produced by Bristol-Myers Co., Ltd., was used as the cisplatin.
The antagonism effect with respect to the binding of colistin to megalin due to cilastatin was investigated using the QCM method.
As a control, measurement and analysis were carried out in the same manner except that cilastatin was not injected (cilastatin injection amount: 0 μg).
The antagonistic action of cilastatin on the binding of gentamicin, vancomycin, cisplatin, and tacrolimus to megalin was investigated using the QCM method.
Specifically, the measurement and analysis of the frequency were carried out in the same manner as for Example 1 except that the injection amount of cilastatin was set to 4000 μg and 4000 μg of gentamicin was used instead of 240 μg of colistin.
In addition, the measurement and analysis of the frequency were carried out in the same manner as for Example 1 except that the injection amount of cilastatin was set to 5000 μg and 1000 μg of vancomycin was used instead of 240 μg of colistin.
In addition, the measurement and analysis of the frequency were carried out in the same manner as for Example 1 except that the injection amount of cilastatin was set to 10000 μg and 800 μg of cisplatin was used instead of 240 μg of colistin.
Furthermore, the measurement and analysis of the frequency were carried out in the same manner as for Example 1 except that the injection amount of cilastatin was set to 2000 μg and 160 μg of tacrolimus was used instead of 240 μg of colistin.

[2] = test system: colistin-induced renal impairment; assay: Colistin nephropathy in rats, urinary NAG/CRE (Example 3)
Procedure: Cilastatin and colistin were co-administered to rats and it was investigated whether or not nephropathy due to colistin was reduced by the megalin ligand antagonistic action of cilastatin.
In evaluating the colistin nephropathy reduction effect due to cilastatin, a colistin solution and a cilastatin solution were prepared as follows.
In the preparation of the colistin solution, first, a colistin stock solution (colistin concentration: 10 mg/mL) was prepared by dissolving 360 mg of colistin sulfate in 30 mL of a saline solution. The colistin stock solution was sterilized by filtration with a 22 mm PVDF membrane and then stored at 4° C. and a colistin administration solution was prepared by diluting the solution with a saline solution before the colistin administration. […]
The concentrations of urinary β-D-N-acetyl-glucosaminidase (NAG) and creatinine (CRE) in the recovered urine were each measured using a measurement kit (product name: CREP 2 and BUNK, both were measured by Roche Diagnostics Co., Ltd.) using a discrete method automatic clinical chemistry analyzer (product name: COBAS INTEGRA 400 plus, manufactured by Roche Diagnostics Co., Ltd.), and the urinary NAG/CRE values of each test group were calculated.

[3] = test system: nephrotoxicity of cisplatin; conditions: rats, reported in PTL 2; cited from earlier work
[4] = test system: kidney tissue (renal tubular cell damage); assay: Nephrotoxicity caused by colistin in C57BL/6 mice, PAS staining and KIM-1 Western blot (Example 4)
Procedure: Division was made into a group in which 30 mg/kg/day of colistin was subcutaneously administered over four days to 12-week-old male C57BL/6 mice (colistin-administered group: colstin), a group in which 100 mg/kg/day of cilastatin was subcutaneously administered over four days in combination with the subcutaneous administration of 30 mg/kg/day of colistin over four days (colistin+cilastatin combination group: colstin+cilastatin), and, as a control, a group in which a physiological saline solution was subcutaneously administered over four days instead of colistin (saline group: saline), administration was performed in the same manner as the protocol of Reference Example 2 described above, after that, the kidney tissue was taken and histochemical staining (PAS staining) was performed.
Furthermore, using the extracted kidney tissue, the expression of KIM-1, which is a renal tubular cell damage marker, was confirmed by Western blot.

[5] = test system: ATCC25922 strain (E. coli standard strain); assay: Disk method anti-microbial activity (Reference Example 4); assay type: cell-based
Procedure: An ATCC25922 strain (E. coli standard strain) was cultured for 20 hours using Mueller Hinton agar (MHA) and then the cultured colonies were suspended in saline and adjusted to obtain a solution equivalent to McFarland turbidity standard 0.5. After uniformly coating and drying the microbial solution on the MHA, 10 μg of colistin, cilastatin, and colistin and cilastatin were each added to 6 mm Whatman filter paper discs, disposed at equal intervals on the MHA described above, and cultured for 20 hours at 37° C., and the blocking circles were compared.

megalin [6] = biological target: T1, megalin; assay: QCM method: binding ability to immobilized megalin (Reference Example 1); parameters: purified megalin from rat kidneys according to the method described in NPL 5 was used as the megalin; from tissue; host or cells: rat kidney; conditions: megalin protein immobilized crystal, colistin 240 μg, gentamicin 4000 μg, vancomycin 1600 μg, cisplatin 400 μg, tenofovir 1200 μg
Procedure: The binding ability of colistin, gentamicin, vancomycin, cisplatin, and tenofovir with respect to megalin was analyzed using the quartz crystal microbalance method (QCM method).
Regarding the immobilization of megalin protein using the Immobilization Kit for AFFINIX (registered trademark) (manufactured by Initium), according to the protocol recommended in the kit, a megalin protein solution adjusted to 12 to 14 μg/mL using Buffer A included in the kit was immobilized by being placed on the crystal installed in the holder.
In more detail, 8 μL of each drug solution was injected to the megalin protein-immobilized crystal placed in the surface of water containing 8 mL of buffer, and the frequency was measured. As a control, measurement was also performed in the same manner with respect to a crystal where the megalin protein was not immobilized. The measurement data was analyzed using dedicated analysis software AQUA (produced by Initium).

proximal tubular cells = assay: Renal tubular cell damage by colistin in kidney specific mosaic-type megalin knockout mice (Reference Examples 2 and 3); assay type: in vivo, mice (apoE cre/megalin loxP)
Procedure: Renal tubular cell damage caused when colistin was administered to megalin mosaic-type knockout mice was analyzed.
First, 12-week-old kidney specific mosaic-type megalin knockout mice (apoE cre/megalin loxP) were used in the experiments (in these mice, genes expressing megalin in about 60% of proximal tubular cells were knocked out). With respect to these mice, the subcutaneous administration of colistin was performed over four days (30 mg/kg/day), after that, proximal tubular cells were analyzed and immunohistochemical staining was performed.
With the same method as in Reference Example 2, colistin was administered to renal-specific mosaic-type megalin knockout mice, after that, the proximal tubular cells were analyzed, and the expression of KIM-1 (Kidney Injury Molecule 1), which is an injury marker of proximal tubular cells, and the expression of megalin were confirmed using a fluorescent double staining method.

[7] = 10 μg on 6 mm filter paper disc, MHA, 20 hours at 37° C.
[8] = colistin 30 mg/kg/day subcutaneous over four days

T1 sequence (P98158 26-4660): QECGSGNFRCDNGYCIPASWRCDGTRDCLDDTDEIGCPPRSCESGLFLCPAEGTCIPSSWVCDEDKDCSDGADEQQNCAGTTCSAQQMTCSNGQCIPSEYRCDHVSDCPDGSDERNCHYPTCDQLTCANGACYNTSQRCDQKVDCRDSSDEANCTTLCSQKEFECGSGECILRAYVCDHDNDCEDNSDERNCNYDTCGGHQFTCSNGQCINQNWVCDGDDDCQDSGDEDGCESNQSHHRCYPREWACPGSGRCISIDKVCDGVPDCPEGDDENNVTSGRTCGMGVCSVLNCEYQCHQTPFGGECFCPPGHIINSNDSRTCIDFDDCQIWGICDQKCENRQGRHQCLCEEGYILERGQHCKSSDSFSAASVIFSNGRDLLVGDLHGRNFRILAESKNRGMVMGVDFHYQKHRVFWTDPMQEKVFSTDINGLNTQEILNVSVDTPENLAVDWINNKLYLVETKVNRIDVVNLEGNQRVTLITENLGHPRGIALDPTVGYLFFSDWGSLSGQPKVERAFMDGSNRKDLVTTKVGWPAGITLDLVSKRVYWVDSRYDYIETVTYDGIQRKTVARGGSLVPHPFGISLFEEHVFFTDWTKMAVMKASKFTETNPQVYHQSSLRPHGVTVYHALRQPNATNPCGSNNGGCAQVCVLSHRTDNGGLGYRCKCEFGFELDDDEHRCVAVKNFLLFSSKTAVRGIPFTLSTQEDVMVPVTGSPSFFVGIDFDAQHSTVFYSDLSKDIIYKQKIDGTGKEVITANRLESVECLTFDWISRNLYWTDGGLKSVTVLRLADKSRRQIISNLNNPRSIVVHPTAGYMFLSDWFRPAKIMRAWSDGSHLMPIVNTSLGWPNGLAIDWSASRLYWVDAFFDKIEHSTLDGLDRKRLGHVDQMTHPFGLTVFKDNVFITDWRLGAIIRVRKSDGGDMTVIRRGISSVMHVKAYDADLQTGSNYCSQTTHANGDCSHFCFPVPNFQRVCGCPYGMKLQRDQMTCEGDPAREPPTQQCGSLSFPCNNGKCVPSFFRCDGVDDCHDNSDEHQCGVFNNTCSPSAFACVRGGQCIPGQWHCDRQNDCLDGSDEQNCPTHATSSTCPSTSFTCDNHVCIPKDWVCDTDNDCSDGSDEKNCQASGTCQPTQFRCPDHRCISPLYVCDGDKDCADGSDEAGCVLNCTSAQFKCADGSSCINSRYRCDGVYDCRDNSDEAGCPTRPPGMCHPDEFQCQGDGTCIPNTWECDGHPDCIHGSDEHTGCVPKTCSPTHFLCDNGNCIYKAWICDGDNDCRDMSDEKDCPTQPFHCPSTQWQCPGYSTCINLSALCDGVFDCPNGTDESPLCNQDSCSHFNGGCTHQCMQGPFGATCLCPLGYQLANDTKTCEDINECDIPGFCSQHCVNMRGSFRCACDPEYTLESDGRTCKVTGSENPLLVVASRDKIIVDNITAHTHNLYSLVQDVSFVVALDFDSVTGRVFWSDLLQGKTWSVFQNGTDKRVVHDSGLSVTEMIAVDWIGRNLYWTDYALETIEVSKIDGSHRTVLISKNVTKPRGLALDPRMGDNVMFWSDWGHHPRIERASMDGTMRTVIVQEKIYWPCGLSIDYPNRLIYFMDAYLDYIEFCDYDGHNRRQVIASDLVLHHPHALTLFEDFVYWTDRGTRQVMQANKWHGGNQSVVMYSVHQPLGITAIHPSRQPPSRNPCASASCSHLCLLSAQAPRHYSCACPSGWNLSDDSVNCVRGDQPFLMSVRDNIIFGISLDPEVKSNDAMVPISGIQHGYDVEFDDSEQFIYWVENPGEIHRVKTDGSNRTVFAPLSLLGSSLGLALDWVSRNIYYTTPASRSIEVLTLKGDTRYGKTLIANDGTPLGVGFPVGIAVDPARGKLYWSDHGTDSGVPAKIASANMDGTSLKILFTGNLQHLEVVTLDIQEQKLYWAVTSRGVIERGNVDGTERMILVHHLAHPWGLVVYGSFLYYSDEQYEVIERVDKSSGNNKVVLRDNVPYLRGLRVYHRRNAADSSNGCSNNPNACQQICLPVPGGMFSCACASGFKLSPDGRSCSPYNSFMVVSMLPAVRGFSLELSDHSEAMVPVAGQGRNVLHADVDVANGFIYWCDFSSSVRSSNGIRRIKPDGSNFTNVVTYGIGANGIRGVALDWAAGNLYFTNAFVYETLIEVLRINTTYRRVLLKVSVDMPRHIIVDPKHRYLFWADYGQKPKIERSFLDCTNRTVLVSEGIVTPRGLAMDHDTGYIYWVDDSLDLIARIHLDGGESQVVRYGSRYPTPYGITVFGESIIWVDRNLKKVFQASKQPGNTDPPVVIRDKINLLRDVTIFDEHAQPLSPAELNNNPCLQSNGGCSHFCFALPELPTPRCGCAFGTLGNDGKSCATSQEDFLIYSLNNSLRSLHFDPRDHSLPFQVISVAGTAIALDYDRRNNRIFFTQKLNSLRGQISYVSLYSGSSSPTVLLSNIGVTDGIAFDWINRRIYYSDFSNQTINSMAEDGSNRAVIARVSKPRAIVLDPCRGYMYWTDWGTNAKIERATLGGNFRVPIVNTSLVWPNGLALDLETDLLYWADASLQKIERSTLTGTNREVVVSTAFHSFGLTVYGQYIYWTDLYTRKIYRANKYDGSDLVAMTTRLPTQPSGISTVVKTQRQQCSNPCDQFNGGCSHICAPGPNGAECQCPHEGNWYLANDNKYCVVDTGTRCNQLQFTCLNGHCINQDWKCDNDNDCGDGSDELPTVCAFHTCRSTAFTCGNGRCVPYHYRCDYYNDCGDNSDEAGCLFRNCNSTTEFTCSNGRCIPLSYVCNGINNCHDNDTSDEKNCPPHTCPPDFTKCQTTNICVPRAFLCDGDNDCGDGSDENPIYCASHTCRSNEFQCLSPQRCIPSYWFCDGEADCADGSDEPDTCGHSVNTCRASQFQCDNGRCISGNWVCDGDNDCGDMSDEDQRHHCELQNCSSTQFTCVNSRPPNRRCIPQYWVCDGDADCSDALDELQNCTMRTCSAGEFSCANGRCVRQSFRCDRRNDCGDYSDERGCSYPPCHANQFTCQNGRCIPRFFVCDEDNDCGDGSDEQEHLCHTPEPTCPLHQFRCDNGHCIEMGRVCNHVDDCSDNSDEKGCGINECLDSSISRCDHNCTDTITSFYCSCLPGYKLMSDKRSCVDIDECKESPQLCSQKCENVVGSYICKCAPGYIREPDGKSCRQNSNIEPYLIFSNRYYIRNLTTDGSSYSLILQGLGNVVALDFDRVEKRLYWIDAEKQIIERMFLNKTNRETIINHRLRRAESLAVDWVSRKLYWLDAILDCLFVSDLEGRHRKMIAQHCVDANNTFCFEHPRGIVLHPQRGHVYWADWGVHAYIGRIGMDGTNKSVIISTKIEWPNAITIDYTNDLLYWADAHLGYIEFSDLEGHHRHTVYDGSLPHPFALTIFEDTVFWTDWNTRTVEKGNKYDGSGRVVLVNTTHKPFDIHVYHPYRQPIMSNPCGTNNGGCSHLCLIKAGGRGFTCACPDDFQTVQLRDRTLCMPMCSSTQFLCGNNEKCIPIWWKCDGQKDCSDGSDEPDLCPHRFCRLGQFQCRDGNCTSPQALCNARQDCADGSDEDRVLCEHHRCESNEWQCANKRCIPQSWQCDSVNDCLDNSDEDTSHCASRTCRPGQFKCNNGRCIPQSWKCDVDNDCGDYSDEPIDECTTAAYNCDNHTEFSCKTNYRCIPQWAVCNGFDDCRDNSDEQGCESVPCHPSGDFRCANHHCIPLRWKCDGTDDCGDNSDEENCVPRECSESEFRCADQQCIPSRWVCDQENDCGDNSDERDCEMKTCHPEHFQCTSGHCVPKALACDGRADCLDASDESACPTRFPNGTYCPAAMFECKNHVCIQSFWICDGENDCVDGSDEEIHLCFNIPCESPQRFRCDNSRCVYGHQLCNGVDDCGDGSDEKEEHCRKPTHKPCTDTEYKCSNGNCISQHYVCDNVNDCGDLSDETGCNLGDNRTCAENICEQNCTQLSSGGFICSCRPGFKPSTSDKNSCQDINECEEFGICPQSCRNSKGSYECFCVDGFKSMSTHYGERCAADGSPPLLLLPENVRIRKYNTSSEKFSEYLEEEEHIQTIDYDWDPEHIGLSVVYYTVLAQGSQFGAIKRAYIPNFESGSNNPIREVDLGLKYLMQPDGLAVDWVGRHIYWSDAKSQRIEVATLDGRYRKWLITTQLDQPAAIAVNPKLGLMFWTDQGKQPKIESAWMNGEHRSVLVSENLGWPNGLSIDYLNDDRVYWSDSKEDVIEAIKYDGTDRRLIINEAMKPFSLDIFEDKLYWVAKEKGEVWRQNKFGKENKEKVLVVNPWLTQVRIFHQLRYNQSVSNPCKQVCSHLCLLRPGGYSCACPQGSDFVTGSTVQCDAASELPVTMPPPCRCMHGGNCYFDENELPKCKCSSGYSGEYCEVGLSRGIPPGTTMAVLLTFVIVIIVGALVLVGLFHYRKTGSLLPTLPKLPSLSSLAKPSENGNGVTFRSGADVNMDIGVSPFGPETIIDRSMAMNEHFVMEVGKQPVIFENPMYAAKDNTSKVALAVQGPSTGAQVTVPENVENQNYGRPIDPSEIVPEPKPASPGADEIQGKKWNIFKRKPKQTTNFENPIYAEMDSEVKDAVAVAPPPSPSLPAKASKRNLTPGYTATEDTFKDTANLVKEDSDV

CC1(C)C[C@@H]1C(=O)N/C(=C\CCCCSC[C@H](N)C(=O)O)C(=O)O [cilastatin, (Z)-7-[[(R)-2-amino-2-carboxyethyl]thio]-2-[[[(S)-2,2-dimethylcyclopropyl]carbonyl]amino]-2-heptenoic acid]
inhibition of binding of tacrolimus to megalin protein (megalin [1]; cilastatin 2000 μg before 160 μg tacrolimus): inhibited by cilastatin
inhibition of binding of gentamicin to megalin protein (megalin [1]; cilastatin 4000 μg before 4000 μg gentamicin): inhibited by cilastatin
inhibition of binding of vancomycin to megalin protein (megalin [1]; cilastatin 5000 μg before 1000 μg vancomycin): inhibited by cilastatin
inhibition of binding of cisplatin to megalin protein (megalin [1]; cilastatin 10000 μg before 800 μg cisplatin): inhibited by cilastatin
inhibition of binding of colistin to megalin protein (megalin [1]; cilastatin 800, 5000 or 10000 μg injected before 240 μg colistin): inhibited depending on the concentration of the cilastatin
colistin-induced renal impairment ([2]; co-administration of cilastatin 100 mg/kg with colistin, rats): colistin-induced renal impairment was reduced
nephrotoxicity of cisplatin on co-administration with cilastatin [3]: the nephrotoxicity was improved
renal tubular cell damage caused by colistin, histologically and biochemically ([4]; cilastatin 100 mg/kg/day combined with colistin 30 mg/kg/day): remarkably improved
blocking circle / anti-microbial activity [5, 7]: a blocking circle was not formed and anti-microbial activity was not exhibited; also recorded: anti-microbial activity could not be seen
influence on the anti-microbial activity of colistin ([5]; colistin and cilastatin on the same disc): does not affect the anti-microbial activity of colistin

N.N.[Cl][Pt][Cl] [cisplatin]
binding to megalin (frequency decrease after injection) (megalin [6]): binding to megalin was confirmed

C=CC[C@@H]1/C=C(\C)C[C@H](C)C[C@H](OC)[C@H]2O[C@@](O)(C(=O)C(=O)N3CCCC[C@H]3C(=O)O[C@H](/C(C)=C/[C@@H]3CC[C@@H](O)[C@H](OC)C3)[C@H](C)[C@@H](O)CC1=O)[C@H](C)C[C@@H]2OC [tacrolimus]
binding to megalin (frequency decrease after injection) (megalin [6]): binding to megalin was confirmed

C[C@H](Cn1cnc2c(N)ncnc21)OCP(=O)(O)O [tenofovir]
binding to megalin (frequency decrease after injection) (megalin [6]): not possible to find the binding

CN[C@H](CC(C)C)C(=O)N[C@H]1C(=O)N[C@@H](CC(N)=O)C(=O)N[C@H]2C(=O)N[C@H]3C(=O)N[C@H](C(=O)N[C@H](C(=O)O)c4cc(O)cc(O)c4-c4cc3ccc4O)[C@H](O)c3ccc(c(Cl)c3)Oc3cc2cc(c3O[C@@H]2O[C@H](CO)[C@@H](O)[C@H](O)[C@H]2O[C@H]2C[C@](C)(N)[C@H](O)[C@H](C)O2)Oc2ccc(cc2Cl)[C@H]1O [vancomycin]
binding to megalin (frequency decrease after injection) (megalin [6]): binding to megalin was confirmed

colistin
binding to megalin (frequency decrease after injection) (megalin [6]): binding to megalin was confirmed
urinary NAG/CRE values relative to saline/saline group ([2]; saline/colistin group, fifth day, colistin total 20.5 mg/kg over 5 days into jugular vein): ≥ 4 times
KIM-1 expression in proximal tubular cells (proximal tubular cells; colistin 30 mg/kg/day subcutaneous over four days, fluorescent double staining with megalin): KIM-1 was also expressed in the proximal tubular cells in which megalin, which remained without being knocked out, was expressed
vacuoles in cytoplasm of proximal tubular cells expressing megalin versus megalin knocked out cells (proximal tubular cells; colistin 30 mg/kg/day subcutaneous over four days, immunohistochemical staining): numerous vacuoles (arrows) were observed in the cytoplasm
dependence of proximal renal tubular cell damage on megalin expression (proximal tubular cells; mosaic-type megalin knockout mice): largely depended on the expression of megalin
dilatation and cast formation of the tubules (PAS staining) [4, 8]: dilatation and cast formation of the tubules was observed
expression of KIM-1 in kidney tissue (Western blot) [4, 8]: increased expression of KIM-1 was observed
blocking circle / anti-microbial activity [5, 7]: a growth inhibition circle was formed
blocking circle diameter [5, 7]: 13.5 mm

gentamicin
binding to megalin (frequency decrease after injection) (megalin [6]): binding to megalin was confirmed
